Paper PMC10762035, “Molecular basis of human trace amine-associated receptor 1 activation” (Nature Communications, 2024)
“And” between values parts separate entries of the source, which are not always exact repeats. Equal entries are not always repeated. Structures can show the parent of a compound that is named as a salt.

Key:
hTA1 [1] = target: T1, hTA1 (Homo sapiens, UniProt Q96RJ0); assay: Screen of 89 aminergic compounds at 10 µM, cAMP accumulation in HEK293T cells; type: cell-based; settings: quadruplicate values; screen at 10 µM;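 further: HEK293T cells co-transfected with hTA1 and GloSensor cAMP reporter, cAMP accumulation detected by luminescence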
T1 construct: expressed in transfected cells; host or cells: HEK293T
T1 sequence (Q96RJ0 1-339): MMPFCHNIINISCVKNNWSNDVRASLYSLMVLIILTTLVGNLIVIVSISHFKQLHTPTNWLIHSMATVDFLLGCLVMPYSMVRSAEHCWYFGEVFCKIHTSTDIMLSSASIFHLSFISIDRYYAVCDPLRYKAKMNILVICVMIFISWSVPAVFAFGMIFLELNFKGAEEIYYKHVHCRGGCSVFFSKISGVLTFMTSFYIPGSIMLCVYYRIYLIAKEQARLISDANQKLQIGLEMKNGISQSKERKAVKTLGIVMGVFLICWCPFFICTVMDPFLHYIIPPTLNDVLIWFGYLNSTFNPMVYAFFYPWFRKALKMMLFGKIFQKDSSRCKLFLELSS

hTA1 [2] = target: T1, hTA1; assay: GloSensor cAMP accumulation assay, concentration response, wild-type hTA1 in transfected HEK293T cells; type: cell-based; settings: log[Compound], replicate wells;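 further: luminescence read after 30 min compound exposure at room temperature in cells preloaded with D-Luciferin, reflecting Gs-driven cAMP rise, efficacy scaled to the maximal β-PEA response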

## CN(C)CCCC1(c2ccc(F)cc2)OCc2cc(C#N)ccc21 (centres unmarked) [Citalopram hydrobromide]
hTA1 [1]
  Luminescence for Screening Data: 6.1 and 6.2 and 7.2 and 6.9

## Cl.O=C1Nc2ccc(Cl)c3c2C1(CCCCN1CC=C(c2ccc(Cl)cc2)CC1)CCC3 (centres unmarked) [DR4485 hydrochloride]
hTA1 [1]
  Luminescence for Screening Data: 5.6 and 5.7 and 6.4 and 4.9

## CNCCCN1c2ccccc2CCc2ccccc21 [Desipramine]
hTA1 [1]
  Luminescence for Screening Data: 6 and 6.2 and 5.6 and 6.1

## CC(C)[C@@]1(NC(=O)[C@@H]2C[C@@H]3c4cccc5[nH]cc(c45)C[C@H]3N(C)C2)O[C@@]2(O)[C@@H]3CCCN3C(=O)[C@H](Cc3ccccc3)N2C1=O [Dihydroergocristine mesylate]
hTA1 [1]
  Luminescence for Screening Data: 5.9 and 6.4 and 5.1 and 5.2

## CN1C[C@H](C(=O)N[C@]2(C)O[C@@]3(O)[C@@H]4CCCN4C(=O)[C@H](Cc4ccccc4)N3C2=O)C[C@@H]2c3cccc4[nH]cc(c34)C[C@H]21 [Dihydroergotamine mesylate]
hTA1 [1]
  Luminescence for Screening Data: 25.4 and 24.7 and 32.7 and 26.9

## Cl.N#Cc1ccc(N2CCN(C(=O)COc3ccc4[nH]cc(CCN)c4c3)CC2)cc1 [Donitriptan hydrochloride]
hTA1 [1]
  Luminescence for Screening Data: 9.4 and 7.6 and 8.3 and 7.4

## N#Cc1c[nH]c2c(C(=O)N3CCN(CCc4ccc(F)cc4)CC3)cccc12 [EMD281014]
hTA1 [1]
  Luminescence for Screening Data: 4.2 and 3.9 and 4.4

## Cc1[nH]c2ccc(Cl)cc2c1C1=CCNCC1 [EMD386088]
hTA1 [1]
  Luminescence for Screening Data: 14.2 and 14.9 and 14.6 and 13.7

## CCN(CC)C(=O)/C(C#N)=C/c1cc(O)c(O)c([N+](=O)[O-])c1 [Entacapone]
hTA1 [1]
  Luminescence for Screening Data: 5.5 and 5.2 and 6.2 and 5.6

## Oc1cc(O)c2c(c1)O[C@H](c1cc(O)c(O)c(O)c1)[C@H](O)C2 [Epigallocatechin]
hTA1 [1]
  Luminescence for Screening Data: 5.2 and 5.7 and 5.9 and 6.3

## O=C1Nc2ccc(Cl)cc2[C@@](C#CC2CC2)(C(F)(F)F)O1 [Evafirenz]
hTA1 [1]
  Luminescence for Screening Data: 3.7 and 4.1 and 4.4 and 4.6

## CNc1ccc2c(CCN)cc(=O)oc2c1 [FFN206]
hTA1 [1]
  Luminescence for Screening Data: 12.7 and 12.5 and 12.8

## O=S1(=O)c2cccc3cccc(c23)N1CCCN1CCN(c2ccc(F)cc2)CC1 [Fananserin]
hTA1 [1]
  Luminescence for Screening Data: 4.9 and 5 and 4.3 and 5.2

## CNCCC(Oc1ccc(C(F)(F)F)cc1)c1ccccc1 (centres unmarked) [Fluoxetine]
hTA1 [1]
  Luminescence for Screening Data: 8.5 and 7.5 and 8.1 and 6.5

## Fc1ccc(C(OCCN2CCN(CCCc3ccccc3)CC2)c2ccc(F)cc2)cc1 [GBR12909]
hTA1 [1]
  Luminescence for Screening Data: 4.8 and 5.2 and 6.6 and 6.2

## CC[C@@H](CO)NC(=O)[C@@H]1C=C2c3cccc4[nH]cc(c34)C[C@H]2N(C)C1 [Methylergonovine]
hTA1 [2]; M = -5
  Normalized Luminescence Counts for WT hTA1: 45.3336 and 42.9514 and 53.7117 and 43.7792 and 37.0624 and 36.5834
hTA1 [2]; M = -5.522
  Normalized Luminescence Counts for WT hTA1: 17.8708 and 18.4864 and 21.6449 and 29.4218 and 29.3534 and 29.1139
hTA1 [2]; M = -6
  Normalized Luminescence Counts for WT hTA1: 12.9992 and 11.3664 and 9.546 and 15.3039 and 15.0416 and 13.8556
hTA1 [2]; M = -6.522
  Normalized Luminescence Counts for WT hTA1: 6.093 and 6.147 and 6.254 and 7.082 and 6.8879 and 7.207
hTA1 [2]; M = -7
  Normalized Luminescence Counts for WT hTA1: 4.514 and 3.604 and 5.103 and 3.125 and 3.353 and 3.387
hTA1 [2]; M = -7.522
  Normalized Luminescence Counts for WT hTA1: 2.5066 and 3.845 and 3.203 and 2.03 and 1.87 and 2.201
hTA1 [2]; M = -8
  Normalized Luminescence Counts for WT hTA1: 2.5869 and 2.4263 and 1.489 and 1.2088 and 1.368 and 1.722
hTA1 [2]; M = -8.522
  Normalized Luminescence Counts for WT hTA1: 1.65 and 1.864 and 0.9274 and 1.414 and 1.14 and 1.916
hTA1 [2]; M = -9
  Normalized Luminescence Counts for WT hTA1: 0.3385 and 0.4991 and -0.009489 and 1.152 and 1.026 and 0.8895
hTA1 [2]; M = -9.522
  Normalized Luminescence Counts for WT hTA1: -0.06302 and -0.3842 and -0.8125 and 0.7184 and 0.4676 and 0.4447
hTA1 [2]; M = -10
  Normalized Luminescence Counts for WT hTA1: -0.08979 and -0.3039 and -0.2504 and 0.2509 and 0.1026 and 0.2167
hTA1 [2]; M = -10.522
  Normalized Luminescence Counts for WT hTA1: -0.3039 and -0.4645 and -0.2236 and 0.05702 and 0.03421 and -0.1026
hTA1 [2]; M = -11
  Normalized Luminescence Counts for WT hTA1: 0.09758 and -0.2772 and 0.4723 and 0.1825 and -0.1939 and 0
hTA1 [2]; M = -11.522
  Normalized Luminescence Counts for WT hTA1: 0.4188 and 0.74 and 0.6597 and 0.2395 and 0.7298 and 0.3877
hTA1 [2]; M = -12
  Normalized Luminescence Counts for WT hTA1: 0.5794 and 0.8471 and 0.74 and 0.3079 and 0.2281 and 0.479
hTA1 [2]; M = -12.522
  Normalized Luminescence Counts for WT hTA1: -0.4378 and 0.6865 and 0.7668 and 0.6272 and 0.479 and 0.1026

## NCCc1ccccc1 [bPEA]
hTA1 [2]; M = -5
  Normalized Luminescence Counts for WT hTA1: 114.55 and 104.58 and 118.623 and 102.53 and 95.7683 and 107.085
hTA1 [2]; M = -5.522
  Normalized Luminescence Counts for WT hTA1: 96.3904 and 87.8446 and 97.5922 and 98.0692 and 90.9789 and 92.0588
hTA1 [2]; M = -6
  Normalized Luminescence Counts for WT hTA1: 88.2006 and 75.1148 and 94.0536 and 103.14 and 88.8658 and 89.805
hTA1 [2]; M = -6.522
  Normalized Luminescence Counts for WT hTA1: 73.7573 and 64.299 and 91.1383 and 74.7791 and 68.7219 and 73.7461
hTA1 [2]; M = -7
  Normalized Luminescence Counts for WT hTA1: 70.4636 and 45.5827 and 61.4726 and 66.5619 and 44.258 and 53.6961
hTA1 [2]; M = -7.522
  Normalized Luminescence Counts for WT hTA1: 36.1467 and 21.3027 and 35.9464 and 26.7905 and 17.9158 and 22.3766
hTA1 [2]; M = -8
  Normalized Luminescence Counts for WT hTA1: 22.727 and 16.7405 and 21.3472 and 13.3611 and 11.9525 and 11.6238
hTA1 [2]; M = -8.522
  Normalized Luminescence Counts for WT hTA1: 4.5 and 4.523 and 5.969 and 4.393 and 2.514 and 2.6083
hTA1 [2]; M = -9
  Normalized Luminescence Counts for WT hTA1: 1.986 and 1.318 and 1.8743 and 1.716 and 1.012 and 1.106
hTA1 [2]; M = -9.522
  Normalized Luminescence Counts for WT hTA1: -1.063 and -1.33 and -0.4402 and -0.06817 and 0.1666 and -0.4908
hTA1 [2]; M = -10
  Normalized Luminescence Counts for WT hTA1: -0.596 and -1.264 and -0.5515 and -0.4438 and -0.7725 and -0.6786
hTA1 [2]; M = -10.522
  Normalized Luminescence Counts for WT hTA1: -1.3749 and -1.931 and -0.6405 and 0.0727 and -0.5847 and -1.101
hTA1 [2]; M = -11
  Normalized Luminescence Counts for WT hTA1: -0.1286 and -1.241 and 0.2497 and 0.6362 and -0.3499 and -0.7725
hTA1 [2]; M = -11.522
  Normalized Luminescence Counts for WT hTA1: -0.01735 and -1.575 and -0.7963 and 0.5892 and -0.3969 and -0.256
hTA1 [2]; M = -12
  Normalized Luminescence Counts for WT hTA1: -1.353 and -1.3749 and -1.286 and 0.02574 and -0.4908 and -0.3029
hTA1 [2]; M = -12.522
  Normalized Luminescence Counts for WT hTA1: -1.152 and -1.664 and -0.9075 and 0.5892 (2×) and 0.4483
